For one data set, the target named is T1, human EAAT3 (Homo sapiens, UniProt P43005).
T1 construct: expressed in transfected cells
T1 sequence (P43005 1-524): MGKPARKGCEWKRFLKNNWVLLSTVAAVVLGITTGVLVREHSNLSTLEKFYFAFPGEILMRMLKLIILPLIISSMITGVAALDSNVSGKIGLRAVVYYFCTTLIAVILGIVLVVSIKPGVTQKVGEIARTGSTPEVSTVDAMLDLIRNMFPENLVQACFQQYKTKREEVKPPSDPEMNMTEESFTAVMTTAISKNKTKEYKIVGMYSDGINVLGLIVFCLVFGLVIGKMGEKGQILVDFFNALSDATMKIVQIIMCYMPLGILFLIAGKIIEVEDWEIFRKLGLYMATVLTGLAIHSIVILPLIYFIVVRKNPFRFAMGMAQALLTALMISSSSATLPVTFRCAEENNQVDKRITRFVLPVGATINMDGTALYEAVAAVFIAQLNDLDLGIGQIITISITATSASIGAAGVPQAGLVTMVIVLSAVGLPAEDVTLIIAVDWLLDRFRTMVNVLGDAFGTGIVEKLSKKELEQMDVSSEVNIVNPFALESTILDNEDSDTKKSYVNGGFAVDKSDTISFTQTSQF
The data set is described as follows: FLIPR Membrane Potential (FMP) assay, antagonist potency at human EAAT3. It is filed as cell-based. The note with it: HEK-293 cells stably expressing human EAAT3; L-glutamate as agonist at EC80; antagonist applied 15 min before agonist; Kb by Cheng-Prusoff from IC50. The protocol:
The FLIPR Membrane Potential (FMP) Assay
HEK-293 cells stably expressing human EAAT3 were seeded at 55 000 cells/well in growth medium (DMEM glutamate free (Invitrogen 11960-044), 1% Pen Strep (10 ml/1 GIBCO BRL N°15140-023), 10% FCS non dialysed heat inactivated, 5 mg/l puromycin) in poly-D-lysine treated 96-well black microtiter plates with clear-bottom. After 24 h, the growth medium was removed and 100 μl/well of Krebs buffer (140 mM NaCl, 4.7 mM KCl, 2.5 mM CaCl2, 1.2 mM MgCl2, 11 mM HEPES, 10 mM D-glucose, pH=7.4) added. The cells were then loaded by adding 100 μl/well FMP assay dye (FLIPR Membrane Potential assay reagent, Molecular Devices). The 96-well plates were then incubated at 37° C. for 1 h. The depolarization of the cells will cause more dye to enter in the cells, where it will bind to intracellular proteins and lipids and cause an increase in the fluorescence signal. Antagonist potency at human EAAT3 was determined by using L-glutamate as agonist at a concentration which gives 80% of the maximum response. The antagonists were applied 15 min before the application of the agonist L-glutamate. The assays were performed at room temperature and measurements done by using a Fluorometric Imaging Plate Reader (FLIPR, Molecular Devices) and filter #2. Responses were measured as peak increase in fluorescence minus basal (i.e. fluorescence without addition of L-glutamate). Kb was determined using the Cheng-Prusoff equation Kb=IC50/[1+(A/EC50)], where IC50 is the concentration of the antagonist producing 50% inhibition, A is the concentration of the agonist against which the IC50 is being determined (at EC80) and EC50 is the concentration of the agonist producing 50% […].

Our source for the Kb and melting point values is patent publication US10029989B2, “Imidazole derivatives” (Hoffmann-La Roche Inc., priority 2015, dated 2018).

For orientation: Kb means the equilibrium dissociation constant of an antagonist, usually derived from a functional assay. A low value points to a more potent antagonist. As usually defined, the melting point is the temperature, or range, at which the solid turns liquid. For `Cc1ccc(-c2cc(C(=O)NC(C)(C)C)cc(-n3ccnc3C(C)C)c2)cc1` [Example 26, N-tert-Butyl-3-(4-methylphenyl)-5-(2-propan-2-ylimidazol-1-yl)-benzamide], the melting point was 104 °C. Also, the Kb at human EAAT3 was 130 nM.
Taken in the same sequence, the figures for `Cc1cc(-c2cc(C(=O)NC(C)(C)C)cc(-n3ccnc3C(C)C)c2)ccc1F` [Example 27, N-tert-Butyl-3-(4-fluoro-3-methylphenyl)-5-(2-propan-2-ylimidazol-1-yl)-benzamide] were 98.5 °C and 280 nM.
In turn, `CC(C)(C)NC(=O)c1cc(-c2ccc(Cl)cc2)cc(-n2ccnc2C(C)(C)C)c1` [Example 28, N-tert-Butyl-3-(2-tert-butylimidazol-1-yl)-5-(4-chlorophenyl)-benzamide] returned a melting point of 101 °C. In addition, on human EAAT3, the Kb came to 160 nM.
The corresponding values for `CC(C)(C)NC(=O)c1cc(-c2ccc(Cl)cc2)cc(-n2ccnc2CO)c1` [Example 29, N-tert-Butyl-3-(4-chlorophenyl)-5-[2-(hydroxymethyl)-imidazol-1-yl]-benzamide] are 114 °C and 150 nM.
Consider `CCC(C)(C)NC(=O)c1cc(-c2ccc(Cl)cc2)cc(-n2ccnc2CO)c1` [Example 30, 3-(4-Chlorophenyl)-5-[2-(hydroxymethyl)-imidazol-1-yl]-N-(2-methylbutan-2-yl)-benzamide], for which the melting point amounted to 76 °C. Besides, the Kb at human EAAT3 amounted to 160 nM.
Taken in the same sequence, the figures for `CCC(C)(C)NC(=O)c1cc(-c2ccc(Cl)cc2)cc(-n2ccnc2C(C)(C)C)c1` [Example 31, 3-(2-tert-Butylimidazol-1-yl)-5-(4-chlorophenyl)-N-(2-methylbutan-2-yl)-benzamide] were 189.5 °C and 410 nM.
Take `CC(C)(C)NC(=O)c1cc(-c2ccc(F)cc2)cc(-n2ccnc2C(C)(C)C)c1` [Example 32, N-tert-Butyl-3-(2-tert-butylimidazol-1-yl)-5-(4-fluorophenyl)-benzamide]: the melting point was determined as 218 °C. Further, the Kb at human EAAT3 was 180 nM.
Taken in the same sequence, the figures for `CC(C)(C)NC(=O)c1cc(-c2ccc(C(F)(F)F)cc2)cc(-n2ccnc2C(C)(C)C)c1` [Example 33, N-tert-Butyl-3-(2-tert-butylimidazol-1-yl)-5-[4-(trifluoromethyl)-phenyl]-benzamide] were 225 °C and 290 nM.
Taken in the same sequence, the figures for `CC(C)(C)NC(=O)c1cc(-c2ccc(F)cc2)cc(-n2ccnc2C(C)(C)O)c1` [Example 34, N-tert-Butyl-3-(4-fluorophenyl)-5-[2-(2-hydroxypropan-2-yl)-imidazol-1-yl]-benzamide] were 183 °C and 100 nM.
In turn, `CC(C)(C)NC(=O)c1cc(-c2ccc(C(F)(F)F)cc2)cc(-n2ccnc2C(C)(C)O)c1` [Example 35, N-tert-Butyl-3-[2-(2-hydroxypropan-2-yl)-imidazol-1-yl]-5-[4-(trifluoromethyl)-phenyl]-benzamide] gave a melting point of 173.5 °C. Further, at human EAAT3, the Kb was 210 nM.
The corresponding values for `CCC(C)(C)NC(=O)c1cc(-c2ccc(Cl)cc2)cc(-n2ccnc2C(C)C)c1` [Example 36, 3-(4-Chlorophenyl)-N-(2-methylbutan-2-yl)-5-(2-propan-2-ylimidazol-1-yl)-benzamide] are 87 °C and 330 nM.
Regarding `CCC(C)(C)NC(=O)c1cc(-c2ccc(Cl)cc2)cc(-n2ccnc2C2CC2)c1` [Example 37, 3-(4-Chlorophenyl)-5-(2-cyclopropylimidazol-1-yl)-N-(2-methylbutan-2-yl)-benzamide], the melting point was determined as 85 °C. Further, on human EAAT3, the Kb is 170 nM.
The compound `CC(C)(C)NC(=O)c1cc(-c2ccc(Cl)cc2)cc(-n2ccnc2C(C)(C)O)c1` [Example 40, N-tert-Butyl-3-(4-chlorophenyl)-5-[2-(2-hydroxypropan-2-yl)-imidazol-1-yl]-benzamide] displayed a melting point of 78 °C. On human EAAT3, this compound registered an antagonist dissociation constant (Kb) of 70 nM.
The corresponding values for `CC(C)c1nccn1-c1cc(C(=O)NC(C)(C)CO)cc(-c2ccc(Cl)cc2)c1` [Example 41, 3-(4-Chlorophenyl)-N-(1-hydroxy-2-methylpropan-2-yl)-5-(2-propan-2-yl-imidazol-1-yl)-benzamide] are 97 °C and 540 nM.
`CC(C)(CO)NC(=O)c1cc(-c2ccc(Cl)cc2)cc(-n2ccnc2C2CC2)c1` [Example 42, 3-(4-Chlorophenyl)-5-(2-cyclopropylimidazol-1-yl)-N-(1-hydroxy-2-methylpropan-2-yl)-benzamide]: the melting point was 99 °C. Moreover, the Kb on human EAAT3 came to 170 nM.
Taken in the same sequence, the figures for `CC(C)(CO)NC(=O)c1cc(-c2ccc(Cl)cc2)cc(-n2ccnc2C(C)(C)C)c1` [Example 43, 3-(2-tert-Butylimidazol-1-yl)-5-(4-chlorophenyl)-N-(1-hydroxy-2-methylpropan-2-yl)-benzamide] were 234 °C and 80 nM.
